Like-named read-outs stand apart in the source and are kept apart here.
Tests used:
[1] = Size and polydispersity index of liposomal nanoparticles by dynamic light scattering; format: physicochemical; conditions: mRNA-encapsulating liposomal nanoparticles; lipid:DSPC:cholesterol:DMG-PEG 50:10:38.5:1.5
Experimental: (§1) Compound 1, compound 2, and comparative compound 1 were each dissolved in an ethanol solution, and the resulting solution was mixed with solutions of DSPC, cholesterol, and DMG-PEG in ethanol in a mole ratio of 50:10:38.5:1.5 to prepare an ethanol lipid solution. mRNA encoding a human growth factor was dissolved in a citrate buffer to prepare an aqueous mRNA solution. Liposomes were prepared by mixing the ethanol lipid solution and the aqueous mRNA solution by microfluidics with a weight ratio of total lipids to mRNA of about 20:1. The ethanol was removed by dialysis against PBS solution to give an mRNA-encapsulating liposomal nanoparticle composition.
The size and polydispersity index (PDI) of the liposomal nanoparticles were determined using a Malvern Zetasizer Nano ZS in a 173° backscatter detection mode through dynamic light scattering.

[2] = Liposome encapsulation efficiency, Quant-iT RiboGreen RNA assay; format: physicochemical; conditions: mRNA-encapsulating liposomal nanoparticles
Experimental: as §1
The liposome encapsulation efficiency was determined using a Quant-iT RiboGreen RNA assay kit.

[3] = pKa of cations in liposomal nanoparticles, TNS fluorescence analysis; format: physicochemical; conditions: pH at half-maximal TNS fluorescence
Experimental: as §1
The pKa of cations in the liposomal nanoparticles was determined using a fluorescence analysis based on 6-(p-toluidino)-2-naphthalenesulfonic acid sodium salt (TNS). 150 mM NaCl, 10 mM sodium phosphate, 10 mM sodium citrate, 10 mM sodium borate, and buffers of various pH levels ranging from 3 to 11.5 were prepared. A 300 μM TNS solution was prepared and added to the buffers. The lipid nanoparticles were added to the buffers of different pH levels and thoroughly mixed with them. Then the fluorescence intensity at an excitation wavelength of 325 nm and an emission wavelength of 435 nm was measured at room temperature using a fluorescence microplate reader. A fitting analysis of the fluorescence data was performed, with the pKa being the pH value at which half-maximal fluorescence intensity was produced.

luciferase protein = assay: Tail vein injection in vivo mRNA delivery efficiency, whole-body luciferase fluorescence intensity (IVIS); design: species or system BALB/c mice; conditions: 0.5 mg/kg, 6 hours; for Fluorescence intensity level (p/s): whole body
Experimental: After 6 hours, the luciferase substrate was injected intraperitoneally into each mouse. Fluorescence images of the mice were captured using an IVIS small animal optical in vivo imaging system (PerkinElme), and the whole-body fluorescence intensity of the mice was recorded. The level of fluorescence intensity reflects the expression level of luciferase protein, i.e., the in vivo mRNA delivery efficiency of the liposomal nanoparticles. […] In FIG. 2, the fluorescence intensity refers to the whole-body fluorescence intensity of the mice recorded using the IVIS small animal optical in vivo imaging system. The level of fluorescence intensity reflects the expression level of luciferase protein, i.e., the in vivo mRNA delivery efficiency of the lipid nanoparticles.
With the liposomal nanoparticles to which comparative compound 1 corresponds as a control, the mouse tail vein injection in vivo mRNA delivery efficiency of the liposomal nanoparticles to which compound 1, compound 3, and compound 4 correspond was measured.

[4] = test system: hepatocyte growth factor protein; assay: In vivo mRNA delivery by intramuscular injection, hepatocyte growth factor protein expression by ELISA; design: species or system BALB/c mice; conditions: HGF mRNA lipid nanoparticles, 0.05 mg/kg; for Mean protein expression level: thigh muscle injection, muscle tissue after 24 hours
Experimental: After 24 hours, the muscle tissue at the injection site was collected, ground, and lysed. The expression level of hepatocyte growth factor protein (pg/mg), i.e., the hepatocyte growth factor protein amount to which the unit muscle tissue total protein amount corresponds, was then measured using an ELISA kit.
With the liposomal nanoparticles to which comparative compound 1 corresponds as a control, the intramuscular injection in vivo mRNA delivery efficiency of the liposomal nanoparticles to which compounds 1 and 2 correspond was measured.

[5] = Tissue targeting: cationic lipid concentrations in liver and spleen after tail vein injection, LC-MS; format: in vivo, BALB/c mice; conditions: 0.5 mg/kg; for AUC(0-t): female, BALB/c, mouse, intravenous, HGF mRNA lipid nanoparticles
Experimental: Based on pharmacokinetic parameters, the total cationic lipid concentrations in the tissues 48 hours after administration were calculated to evaluate the distribution of lipid nanoparticles in the liver and spleen.

interleukin 6 (IL-6) = assay: In vivo immunogenicity: serum IL-6 concentration by ELISA after tail vein injection; design: species or system BALB/c mice; conditions: 0.5 mg/kg, 6 hours
Description: When exogenous substances enter the bodies of mammals, they induce an innate immune response, thereby promoting the production of cytokines. These exogenous substances can cause inflammatory reactions after entry into the body, which easily give rise to adverse reactions such as fever and edema in the body. The immunogenicity of lipid nanoparticles in the body was therefore evaluated by evaluating the concentration of a cytokine such as interleukin 6 (IL-6) in the blood of mice injected with lipid nanoparticles. Lower cytokine concentrations indicate that the lipid nanoparticles have lower immunogenicity, which means that they are biologically safer.
After 6 hours, blood was collected and serum was isolated. The IL-6 concentration in the serum was measured using a mouse IL-6 ELISA kit.

[6] = female, BALB/c, mouse, in vivo, 0.5 mg/kg
Experimental: (§2) To evaluate the targeting in liposomal nanoparticles' in vivo delivery, liposomal nanoparticles with mRNA for expression of hepatocyte growth factor encapsulated therein were injected into the tail veins of 6-8 week old female BALB/c mice at a dose of 0.5 mg/kg. Plasma, liver, and spleen samples were collected at 1 hour, 2 hours, 4 hours, 6 hours, 24 hours, and 48 hours after injection of the lipid nanoparticles, and the concentrations of cationic lipid molecules in the plasma samples at the corresponding time points were determined by LC-MS mass spectrometry to evaluate the metabolism and in vivo clearance rate of the lipid nanoparticles. For the lipid nanoparticles to which each compound corresponds, at least 3 biological replicates were used, and the mean cationic lipid concentrations in the tissues were calculated.
(§3) Based on pharmacokinetic parameters, the half-lives of the cationic lipids in the tissues were calculated.

in vivo = conditions: female, BALB/c, mouse, 0.5 mg/kg
Experimental: as §2, §3

[7] = luciferase mRNA lipid nanoparticles, tail vein
[8] = luciferase mRNA lipid nanoparticles

In the case of `CCCCCCCCCCCOC(=O)CCCCCN(CCO)CCCCCO[C@@H](C)C(=O)OC(CCCCCCCC)CCCCCCCC` [Compound 3], the PDI [1] is reported as 0.09, the “Size (nm)” value [1] is reported as 79.6 nm and the “Encapsulation efficiency (%)” value [2] is reported as 96.7%. For the same compound, the pKa [3] was 6.49 and the “Fluorescence intensity level (p/s)” value (luciferase protein; [7]) was 4.28E+06 p/s.
With `CCCCCCCCCCCOC(=O)CCCCCN(CCO)CCCCCOCC(=O)OC(CCCCCCCC)CCCCCCCC` [Compound 1] the PDI [1] was 0.08, the “Size (nm)” value [1] was 87.8 nm and the “Encapsulation efficiency (%)” value [2] was 94.6%. The pKa [3] was 6.65, the “in vivo mRNA delivery via intramuscular injection compared with comparative compound 1” value ([4]; 24 hours) was “significantly outperformed” and the “in vivo mRNA delivery via intramuscular injection compared with compound 2” value ([4]; 24 hours) was “significantly outperformed”. The “Mean protein expression level” value [4] was 217.3 pg/mg, the “tail vein injection in vivo mRNA delivery efficiency compared with comparative compound 1” value (luciferase protein; [8]) was “significantly better” and the “tail vein injection in vivo mRNA delivery efficiency compared with comparative compound 3 (so in the source)” value (luciferase protein; [8]) was “significantly outperformed”. For the same compound, the “Fluorescence intensity level (p/s)” value (luciferase protein; [7]) was 1.05E+09 p/s, the “protein expression level relative to lipid nanoparticles of comparative compound 1” value (luciferase protein; tail vein) was 2.1 times and the AUC(0-t) ([5]; cationic lipid in liver, read-out: AUC48 h (h*μg/mL) Liver) was 540 µg·h/mL. For the same compound, the AUC(0-t) ([5]; cationic lipid in spleen, read-out: AUC48 h (h*μg/mL) Spleen) was 493 µg·h/mL, the “concentration in the liver compared with comparative compound 1” value ([5]; liver samples at the various time points (FIG. 3)) was “significantly higher” and the “concentration in the spleen compared with comparative compound 1” value ([5]; spleen (FIG. 4)) was “significantly lower”. The “serum IL-6 concentration compared with comparative compound 1” value (interleukin 6 (IL-6)) was “significantly lower”, the “time at which completely cleared from plasma” value [6] was 4 h and the concentration at 1 h (in vivo) was 1.16 µg/mL. It also gave a half-life (in vivo; Half-life (hours) Liver) of 34.2 h and a half-life (in vivo; Half-life (hours) Spleen) of 31.9 h.
With `CCCCCCCCCCCOC(=O)CCCCCN(CCO)CCCCCOC(C)(C)C(=O)OC(CCCCCCCC)CCCCCCCC` [Compound 4] the PDI [1] was 0.07, the “Size (nm)” value [1] was 74.8 nm and the “Encapsulation efficiency (%)” value [2] was 97.3%. For the same compound, the pKa [3] was 6.3, the “tail vein injection in vivo mRNA delivery efficiency compared with comparative compound 1” value (luciferase protein; [8]) was “significantly outperformed” and the “Fluorescence intensity level (p/s)” value (luciferase protein; [7]) was 6.78E+08 p/s. For the same compound, the “serum IL-6 concentration compared with comparative compound 1” value (interleukin 6 (IL-6)) was “significantly lower”.
With `CCCCCCCCCCCOC(=O)CCCCCN(CCO)CCOCCCCC(=O)OC(CCCCCCCC)CCCCCCCC` [Compound 2] the PDI [1] was 0.07, the “Size (nm)” value [1] was 116.5 nm and the “Encapsulation efficiency (%)” value [2] was 97.3%. For the same compound, the pKa [3] was 6.38 and the “Mean protein expression level” value [4] was 92.5 pg/mg.
